In patent EP4603105A1, “PHARMACEUTICAL COMPOSITION CONTAINING CYCLIC COMPOUND HAVING SELECTIVE KRAS INHIBITORY EFFECT AGAINST HRAS AND NRAS” (CHUGAI SEIYAKU KABUSHIKI KAISHA, priority 2022, dated 2024):
pIC50: −log10 of the molar value. Where a SMILES comes first, the peptide text is derived from it. Bridges are numbered along the chain shown (N, C = ends). [ ]: non-standard residue; d: D form. The star is where a group is joined. hPhe(3,5-F2-4-CF3) = N[C@@H](CCc1cc(F)c(C(F)(F)F)c(F)c1)C(=O)O; hPhe(3-Cl-4-CF3) = N[C@@H](CCc1ccc(C(F)(F)F)c(Cl)c1)C(=O)O; NPrPhe(4-CF3) = CCCN[C@@H](Cc1ccc(C(F)(F)F)cc1)C(=O)O; NEtPhe(4-CF3) = CCN[C@@H](Cc1ccc(C(F)(F)F)cc1)C(=O)O; NMeGly(cPent) = CN[C@H](C(=O)O)C1CCCC1; Hyp = O=C(O)[C@@H]1C[C@@H](O)CN1; NMeD = CN[C@@H](CC(=O)O)C(=O)O; NMeL = CN[C@@H](CC(C)C)C(=O)O; αMeL = CC(C)C[C@](C)(N)C(=O)O; Ac6c = NC1(C(=O)O)CCCCC1; Morpholide = C1CN(*)CCO1; Ac5c = NC1(C(=O)O)CCCC1; Aze = O=C(O)[C@@H]1CCN1; Ac4c = NC1(C(=O)O)CCC1; Sar = CNCC(=O)O

Tests used:
[1] = biological target: GDP-bound NRAS wild-type protein (Homo sapiens, UniProt P01111); experiment: Binding to NRAS by surface plasmon resonance (SPR), KD and KD ratio to KRAS
Chain of GDP-bound NRAS wild-type protein (P01111 whole entry): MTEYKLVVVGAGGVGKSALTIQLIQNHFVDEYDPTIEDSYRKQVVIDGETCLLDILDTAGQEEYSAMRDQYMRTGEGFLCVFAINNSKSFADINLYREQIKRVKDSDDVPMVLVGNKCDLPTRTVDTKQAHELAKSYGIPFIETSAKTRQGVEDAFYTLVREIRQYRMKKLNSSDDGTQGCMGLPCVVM
Method in brief: (§1)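 Captured GDP-RAS (~100–300 RU) was exposed to increasing compound concentrations, 75 s per step, in running buffer with 10 µM GDP, 10 mM MgCl2 and 4% DMSO at pH 7.4.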

HRAS wild-type protein = HRAS wild-type protein (Homo sapiens, UniProt P01112); experiment: Binding to HRAS by surface plasmon resonance (SPR), KD and KD ratio to KRAS
Chain of HRAS wild-type protein (P01112 whole entry): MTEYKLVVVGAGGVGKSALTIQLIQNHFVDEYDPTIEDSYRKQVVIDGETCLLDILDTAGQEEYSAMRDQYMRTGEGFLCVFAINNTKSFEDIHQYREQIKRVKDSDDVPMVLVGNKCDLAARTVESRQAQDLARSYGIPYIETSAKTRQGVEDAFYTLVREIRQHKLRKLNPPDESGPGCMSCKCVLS
Method in brief: as §1

[2] = system: human lung cancer strain NCI-H441; format: cell-based
Method in brief: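 Step one: dispense the test compound in serial DMSO dilutions. Step three: add the reagent and measure […].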

[3] = ratio of the KD value with respect to GDP-bound NRAS wild-type protein to the KD value with respect to KRAS
[4] = ratio of the KD value with respect to HRAS wild-type protein to the KD value with respect to KRAS
[5] = ratio of KD for GDP-bound NRAS wild-type protein to KD for KRAS
[6] = ratio of KD for HRAS wild-type protein to KD for KRAS
[7] = ratio of KD value for GDP-bound NRAS wild-type protein to KD value for KRAS (SPR)
[8] = ratio of KD value for HRAS wild-type protein to KD value for KRAS (SPR)

Row | Structure (SMILES) | pIC50 [2] | NRAS /KRAS [1, 3] | HRAS /KRAS (HRAS wild-type protein; [4]) | NRAS /KRAS [1, 5] | HRAS /KRAS (HRAS wild-type protein; [6]) | NRAS /KRAS [1, 7] | HRAS /KRAS (HRAS wild-type protein; [8])
1 | CCCN1C(=O)CN(C)C(=O)CN(C)C(=O)[C@H]([C@@H](C)CC)NC(=O)[C@H](CC(C)C)N(C)C(=O)C[C@@H](C(=O)N(C)C)N(C)C(=O)[C@H](C2CCCC2)N(C)C(=O)[C@](C)(CC(C)C)NC(=O)[C@@H]2CCCN2C(=O)[C@H](CCc2cc(F)c(C(F)(F)F)c(F)c2)NC(=O)CN(C)C(=O)[C@@H]1Cc1ccc(C(F)(F)F)cc1 [PP0738] ([NMeL]I[Sar][Sar][NPrPhe(4-CF3)][Sar][hPhe(3,5-F2-4-CF3)]P[αMeL][NMeGly(cPent)][NMeD]-NMe2; lactam N-11) | 7.00 | B (a compound having 3 or more and less than 10 is denoted as B) | B (a compound having 3 or more and less than 10 is denoted as B) | – | – | – | –
2 | CCC[C@H]1C(=O)N[C@@H]([C@@H](C)CC)C(=O)N(C2CC2)CC(=O)N(C)[C@H]2C/C=C\CCN(C2=O)[C@@H](Cc2ccc(C(F)(F)F)cc2)C(=O)N(C)CC(=O)N[C@@H](CCc2ccc(Cl)c(Cl)c2)C(=O)N2C[C@H](OCC)C[C@H]2C(=O)NC2(CC(C)(C)C2)C(=O)N(C)[C@@H](CC2CC2)C(=O)N(C)[C@H](C(=O)N(C)C)CC(=O)N1C [PP2817] | 7.26 | – | – | A (a compound having 10 or more and less than 20 is denoted as A) | A (a compound having 10 or more and less than 20 is denoted as A) | – | –
3 | CCO[C@@H]1C[C@H]2C(=O)NC3(CCC3)C(=O)N(C)[C@@H](C3CCCC3)C(=O)N(C)[C@H](C(=O)N(C)C)CC(=O)N(C)C[C@@H](C)C(=O)N[C@@H]([C@@H](C)CC)C(=O)N(C)CC(=O)N(C)[C@H]3CCCCN(C3=O)[C@@H](Cc3ccc(C(F)(F)F)cc3)C(=O)N(C)CC(=O)N[C@@H](CCc3cc(F)c(C(F)(F)F)c(F)c3)C(=O)N2C1 [PP0706] | 5.27 | B (a compound having 3 or more and less than 10 is denoted as B) | B (a compound having 3 or more and less than 10 is denoted as B) | – | – | – | –
4 | CCCN1C(=O)CN(C)C(=O)[C@@H]2CCN2C(=O)[C@H]([C@@H](C)CC)NC(=O)[C@H](CC(C)C)N(C)C(=O)C[C@@H](C(=O)N2CCOCC2)NC(=O)[C@H](C2CCCC2)N(C)C(=O)C2(CCC2)NC(=O)[C@@H]2C[C@@H](OCC)CN2C(=O)[C@H](CCc2ccc(C(F)(F)F)c(Cl)c2)NC(=O)CN(C)C(=O)[C@@H]1Cc1ccc(C(F)(F)F)cc1 [PP0342] ([NMeL]I[Aze][Sar][NPrPhe(4-CF3)][Sar][hPhe(3-Cl-4-CF3)][Hyp](Et)[Ac4c][NMeGly(cPent)]D-Morpholide; lactam N-11) | 6.85 | – | – | B (a compound having 3 or more and less than 10 is denoted as B) | B (a compound having 3 or more and less than 10 is denoted as B) | – | –
5 | CC[C@H](C)[C@@H]1NC(=O)[C@H](CC(C)C)N(C)C(=O)C[C@@H](C(=O)N2CCOCC2)N(C)C(=O)[C@H](C2CCCC2)N(C)C(=O)C2(CCCC2)NC(=O)[C@@H]2CCCN2C(=O)[C@H](CCc2ccc(C(F)(F)F)c(Cl)c2)NC(=O)CN(C)C(=O)[C@H](Cc2ccc(Cl)cc2)N2CCCCC[C@@H](C2=O)N(C)C(=O)CN(C)C1=O [PP0613] | 7.37 | B (a compound having 3 or more and less than 10 is denoted as B) | B (a compound having 3 or more and less than 10 is denoted as B) | – | – | – | –
6 | CCCN1C(=O)CN(C)C(=O)CN(C)C(=O)[C@H]([C@@H](C)CC)NC(=O)[C@H](CC(C)C)N(C)C(=O)C[C@@H](C(=O)N2CCOCC2)NC(=O)[C@H](C2CCCC2)N(C)C(=O)C2(CCC2)NC(=O)[C@@H]2C[C@@H](OCC)CN2C(=O)[C@H](CCc2ccc(C(F)(F)F)c(Cl)c2)NC(=O)CN(C)C(=O)[C@@H]1Cc1ccc(C(F)(F)F)cc1 [PP0324] ([NMeL]I[Sar][Sar][NPrPhe(4-CF3)][Sar][hPhe(3-Cl-4-CF3)][Hyp](Et)[Ac4c][NMeGly(cPent)]D-Morpholide; lactam N-11) | 7.41 | – | – | B (a compound having 3 or more and less than 10 is denoted as B) | B (a compound having 3 or more and less than 10 is denoted as B) | – | –

The next compounds have a higher pIC50 [2] than those just listed; values first:

Row | pIC50 [2] | Structure (SMILES) | NRAS /KRAS [1, 3] | HRAS /KRAS (HRAS wild-type protein; [4]) | NRAS /KRAS [1, 5] | HRAS /KRAS (HRAS wild-type protein; [6]) | NRAS /KRAS [1, 7] | HRAS /KRAS (HRAS wild-type protein; [8])
7 | 7.69 | CC[C@H](C)[C@@H]1NC(=O)[C@H](CC(C)C)N(C)C(=O)C[C@@H](C(=O)N2CCOCC2)N(C)C(=O)[C@H](C2CCCC2)N(C)C(=O)C2(CCCCC2)NC(=O)[C@@H]2CCCN2C(=O)[C@H](CCc2ccc(C(F)(F)F)c(Cl)c2)NC(=O)CN(C)C(=O)[C@H](Cc2ccc(C(F)(F)F)cc2)N(CC)C(=O)CN(C)C(=O)CN(C)C1=O [PP0236] ([NMeL]I[Sar][Sar][NEtPhe(4-CF3)][Sar][hPhe(3-Cl-4-CF3)]P[Ac6c][NMeGly(cPent)][NMeD]-Morpholide; lactam N-11) | – | – | B (a compound having 3 or more and less than 10 is denoted as B) | C (A compound having a KD ratio of 0.1 or more and less than 3 is denoted as C) | – | –
8 | 7.83 | CCCO[C@H]1CCN2C(=O)[C@H](CCc3cc(F)c(C(F)(F)F)c(F)c3)NC(=O)CN(C)C(=O)[C@H](Cc3ccc(C(F)(F)F)cc3)N3CCCC[C@@H](C3=O)N(C)C(=O)CN(C)C(=O)[C@H]([C@@H](C)CC)NC(=O)[C@H](CC(C)C)N(C)C(=O)C[C@@H](C(=O)N3CCOCC3)N(C)C(=O)[C@H](C3CCCC3)N(C)C(=O)C3(CCC3)NC(=O)[C@H]12 [PP1077] | – | – | B (a compound having 3 or more and less than 10 is denoted as B) | B (a compound having 3 or more and less than 10 is denoted as B) | – | –
9 | 7.89 | CC[C@H](C)[C@@H]1NC(=O)[C@H](C)N(C)C(=O)C[C@@H](C(=O)N2CCOCC2)N(C)C(=O)[C@H](C2CCCC2)N(C)C(=O)C2(CCCC2)NC(=O)[C@@H]2CCCN2C(=O)[C@H](CCc2cc(F)c(C(F)(F)F)c(F)c2)NC(=O)CN(C)C(=O)[C@H](Cc2ccc(C(F)(F)F)cc2)N2CCCC[C@@H](C2=O)N(C)C(=O)CN(C)C1=O [PP0549] | C (A compound having a KD ratio of 0.1 or more and less than 3 is denoted as C) | B (a compound having 3 or more and less than 10 is denoted as B) | – | – | – | –
10 | 7.97 | CC[C@H](C)[C@@H]1NC(=O)[C@H](CC2CC2)N(C)C(=O)C[C@@H](C(=O)N(C)C)N(C)C(=O)[C@H](C2CCCC2)N(C)C(=O)C2(CCC2)NC(=O)[C@@H]2C[C@@H](F)CN2C(=O)[C@H](CCc2cc(F)c(C(F)(F)F)c(F)c2)NC(=O)CN(C)C(=O)[C@H](Cc2ccc(C(F)(F)F)cc2)N2CC/C=C\C[C@@H](C2=O)N(C)C(=O)CN(C)C1=O [PP1497] | – | – | – | – | A (a compound having 10 or more and less than 20 is denoted as A) | A (a compound having 10 or more and less than 20 is denoted as A)
11 | 8.39 | CC[C@H](C)[C@@H]1NC(=O)[C@H](CC(F)(F)F)N(C)C(=O)C[C@@H](C(=O)N(C)C)N(C)C(=O)[C@H](C2CCCC2)N(C)C(=O)C2(CC(C)(C)C2)NC(=O)[C@@H]2CC(F)(F)CN2C(=O)[C@H](CCc2cc(F)c(C(F)(F)F)c(F)c2)NC(=O)CN(C)C(=O)[C@H](Cc2ccc(C(F)(F)F)cc2)N2CC/C=C\C[C@@H](C2=O)N(C)C(=O)CN(C)C1=O [PP1710] | – | – | – | – | A (a compound having 10 or more and less than 20 is denoted as A) | B (a compound having 3 or more and less than 10 is denoted as B)
12 | 8.52 | CCCN1C(=O)[C@@H]2CCN2C(=O)CN(C)C(=O)[C@H]([C@@H](C)CC)NC(=O)[C@H](CC(C)C)N(C)C(=O)C[C@@H](C(=O)N(C)C)NC(=O)[C@H](C2CCCC2)N(C)C(=O)C2(CCCC2)NC(=O)[C@@H]2C[C@@H](OCC)CN2C(=O)[C@H](CCc2ccc(C(F)(F)F)c(Cl)c2)NC(=O)CN(C)C(=O)[C@@H]1Cc1ccc(C(F)(F)F)cc1 [PP0389] ([NMeL]I[Sar][Aze][NPrPhe(4-CF3)][Sar][hPhe(3-Cl-4-CF3)][Hyp](Et)[Ac5c][NMeGly(cPent)]D-NMe2; lactam N-11) | C (A compound having a KD ratio of 0.1 or more and less than 3 is denoted as C) | B (a compound having 3 or more and less than 10 is denoted as B) | – | – | – | –
13 | 8.52 | CCO[C@@H]1C[C@H]2C(=O)NC3(CC(C)(C)C3)C(=O)N(C)[C@@H](C3CCCC3)C(=O)N(C)[C@H](C(=O)N(C)CC)CC(=O)N(C)[C@@H](COC)C(=O)N[C@@H]([C@@H](C)CC)C(=O)N(C)CC(=O)N(C)[C@H]3C/C=C\CCN(C3=O)[C@@H](Cc3ccc(C(F)(F)F)cc3)C(=O)N(C)CC(=O)N[C@@H](CCc3cc(F)c(C(F)(F)F)c(F)c3)C(=O)N2C1 [PP1671] | – | – | – | – | A (a compound having 10 or more and less than 20 is denoted as A) | A (a compound having 10 or more and less than 20 is denoted as A)
14 | 8.64 | CCCN1C(=O)CN(C)C(=O)CN(C)C(=O)[C@H]([C@@H](C)CC)NC(=O)[C@H](CC(C)C)N(C)C(=O)C[C@@H](C(=O)N(C)C)N(C)C(=O)[C@H](C2CCCC2)N(C)C(=O)C2(CCCC2)NC(=O)[C@@H]2CCCN2C(=O)[C@H](CCc2ccc(C(F)(F)F)c(Cl)c2)NC(=O)CN(C)C(=O)[C@@H]1Cc1ccc(C(F)(F)F)cc1 [PP0169] ([NMeL]I[Sar][Sar][NPrPhe(4-CF3)][Sar][hPhe(3-Cl-4-CF3)]P[Ac5c][NMeGly(cPent)][NMeD]-NMe2; lactam N-11) | – | – | B (a compound having 3 or more and less than 10 is denoted as B) | B (a compound having 3 or more and less than 10 is denoted as B) | – | –
